Consider 8 compounds from ChEMBL document CHEMBL1201862, “PubChem BioAssay data set” (2004).

Test systems include 786-0; A498; BT-549; COLO 205; HCT-15; HOP-92; Hs-578T; IGROV-1; M14; Malme-3M; NCI-H23; NCI-H460; NCI-H522; OVCAR-3; SK-MEL-5; SK-OV-3; SNB-75; SW-620; TK-10; SNB-78.
Assay in all cases: growth of human tumour cells (NCI), 48 h

Structures are written as SMILES.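 Cultured in 96-well plates, cells were exposed to test compound for 48 hours across five concentrations. GI50 = concentration required for 50% inhibition of growth.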 The source made the active and inactive calls. Rule as the data show it: active = GI50 up to about 1.1 µM and inactive = higher.

As for `O=P(O)(O)CN1CCNCCN(CP(=O)(O)O)CCNCC1`, the GI50 with 786-0 was > 30.8 µM (inactive); in the experiment on A498, 8.36 µM (inactive); in the experiment on BT-549 it was > 100 µM (inactive); in the experiment with COLO 205, 5.13 µM (inactive); in the experiment on HCT-15 it was 4.2 µM; with HOP-92, 3.78 µM (inactive). Further, the GI50 in the experiment with Hs-578T was > 100 µM (inactive); in the experiment with IGROV-1 it was 6.52 µM (inactive); with M14 it was 26.1 µM (inactive); in the experiment on Malme-3M, 20.9 µM (inactive); with NCI-H23, 10.1 µM (inactive); with NCI-H460 it was 3.24 µM (inactive). Further, the GI50 was 9.38 µM (inactive) with NCI-H522; > 100 µM (inactive) in the experiment on OVCAR-3; 4.76 µM (inactive) with SK-MEL-5; 8.87 µM (inactive) in the experiment with SK-OV-3; > 51.6 µM (inactive) in the experiment on SNB-75; 4.74 µM (inactive) in the experiment with SW-620. Further, the GI50 in the experiment with TK-10 is > 62.2 µM (inactive).
In the case of `COc1ccc2c(c1)-c1nn(CCN(C)C)c3ccc(C(=O)NCCCN(C)CCCNC(=O)c4ccc5c6c(c7cc(OC)ccc7nc46)NN5CCN(C)C)c(c13)N2`, the GI50 in the experiment on 786-0 is 0.0313 µM (active); in the experiment on A498, 0.0859 µM (active); in the experiment on BT-549, 0.138 µM (active); with COLO 205, 0.0169 µM (active); in the experiment on HCT-15 it was 0.251 µM; in the experiment with HOP-92, 0.0478 µM (active). Also, the GI50 is 0.201 µM (active) with Hs-578T; 0.0215 µM (active) with IGROV-1; 0.0822 µM (active) in the experiment with M14; 0.106 µM (active) with Malme-3M; 0.0344 µM (active) in the experiment with NCI-H23; 0.0187 µM (active) in the experiment on NCI-H460. Further, the GI50 with NCI-H522 is < 0.01 µM (active); with OVCAR-3 it was 0.0933 µM (active); in the experiment on SK-MEL-5 it was 0.0512 µM (active); in the experiment on SK-OV-3, 0.0861 µM (active); with SNB-75 it was 0.114 µM (active); in the experiment on SW-620 it was 0.018 µM (active). In addition, in the experiment on TK-10, the GI50 was 0.102 µM (active).
In the case of `CC(=O)OCC1OC(n2c(N)c(C#N)c(-c3ccccc3)c(C#N)c2=S)C(OC(C)=O)C(OC(C)=O)C1OC(C)=O` (centres undefined), the GI50 in the experiment on 786-0 is 21.8 µM (inactive); in the experiment on A498, > 64.4 µM (inactive); in the experiment with BT-549, 42.6 µM (inactive); in the experiment on COLO 205 it was > 100 µM (inactive); with HCT-15 it was greater than 100 µM; in the experiment with HOP-92 it was 11.8 µM (inactive). Also, the GI50 in the experiment on Hs-578T is 14.6 µM (inactive); in the experiment with IGROV-1, > 100 µM (inactive); in the experiment with M14, > 100 µM (inactive); in the experiment on Malme-3M it was > 100 µM (inactive); in the experiment with NCI-H23, > 65.8 µM (inactive); with NCI-H460, > 79.8 µM (inactive). Also, the GI50 in the experiment on NCI-H522 is 13 µM (inactive); in the experiment with OVCAR-3 it was > 100 µM (inactive); with SK-MEL-5 it was > 100 µM (inactive); in the experiment with SK-OV-3 it was 54.2 µM (inactive); with SNB-75 it was 7.33 µM (inactive); with SW-620, > 100 µM (inactive). Further, the GI50 in the experiment on TK-10 was > 100 µM (inactive).
As to `CCC1CC2C(=O)N(c3ccccc3)C(=O)C2c2[nH]c3ccccc3c21` (centres undefined), the GI50 was 18.9 µM (inactive) with 786-0; 25.4 µM (inactive) with A498; 22 µM (inactive) in the experiment with COLO 205; 60.8 µM in the experiment on HCT-15; 6.43 µM (inactive) with IGROV-1; 17.1 µM (inactive) in the experiment with M14. The GI50 was 14.1 µM (inactive) in the experiment on Malme-3M; 71.8 µM (inactive) in the experiment on NCI-H23; 15.8 µM (inactive) in the experiment on NCI-H460; 15.7 µM (inactive) in the experiment with OVCAR-3; 30.8 µM (inactive) with SK-MEL-5; 13.6 µM (inactive) in the experiment with SK-OV-3. Besides, the GI50 was 3.08 µM (inactive) in the experiment with SNB-75, 26.6 µM (inactive) in the experiment with SNB-78, 46.1 µM (inactive) with SW-620 and 31.9 µM (inactive) in the experiment on TK-10.
As to `CCOC(=O)NN(C(=O)OCC)C(C(=O)c1ccccc1)N(NC(=O)OCC)C(=O)OCC`, the GI50 in the experiment with 786-0 is > 100 µM (inactive); in the experiment on A498 it was > 100 µM (inactive); in the experiment with BT-549 it was > 100 µM (inactive); in the experiment on COLO 205, > 100 µM (inactive); in the experiment with HCT-15, greater than 100 µM; with HOP-92, > 100 µM (inactive). Further, the GI50 in the experiment with Hs-578T, with IGROV-1, in the experiment on M14, in the experiment on Malme-3M, in the experiment on NCI-H23 and in the experiment on NCI-H460 was > 100 µM (inactive) throughout. Moreover, the GI50 in the experiment on NCI-H522, in the experiment on OVCAR-3, in the experiment with SK-MEL-5, in the experiment on SK-OV-3, in the experiment on SNB-75 and with SW-620 was > 100 µM (inactive) in each case. Moreover, the GI50 in the experiment on TK-10 was > 100 µM (inactive).
For `CCCC1(N)CC(OC)OC(C)C1O` (centres undefined), the GI50 with 786-0 was > 100 µM (inactive); with A498, > 100 µM (inactive); with BT-549, > 100 µM (inactive); with COLO 205, > 100 µM (inactive); with HCT-15, greater than 100 µM; in the experiment on HOP-92 it was > 100 µM (inactive). The GI50 in the experiment with Hs-578T, in the experiment with IGROV-1, in the experiment on M14, in the experiment with Malme-3M, with NCI-H23 and in the experiment on NCI-H460 was > 100 µM (inactive) throughout. Further, the GI50 in the experiment with NCI-H522, in the experiment on OVCAR-3, with SK-MEL-5, with SK-OV-3, in the experiment with SNB-75 and in the experiment with SW-620 was > 100 µM (inactive) in each case. In the experiment on TK-10, the GI50 is > 100 µM (inactive).
For the compound `O=[N+]([O-])c1ccc(-n2nc3ccc4c(no[n+]4[O-])c3[n+]2[O-])c([N+](=O)[O-])c1`, the GI50 with 786-0 was 2.68 µM (inactive); in the experiment on A498, 5.45 µM (inactive); with BT-549, 2.67 µM (inactive); with COLO 205, 1.54 µM (inactive); with HCT-15 it was 2.69 µM; in the experiment on HOP-92, 2.96 µM (inactive). Also, the GI50 was 2.81 µM (inactive) in the experiment on Hs-578T; 1.71 µM (inactive) in the experiment on IGROV-1; 1.59 µM (inactive) with M14; 2.45 µM (inactive) in the experiment on Malme-3M; 2.19 µM (inactive) in the experiment with NCI-H23; 5.55 µM (inactive) in the experiment with NCI-H460. In addition, the GI50 is 1.72 µM (inactive) in the experiment on NCI-H522; 2.47 µM (inactive) in the experiment on OVCAR-3; 2.79 µM (inactive) in the experiment on SK-MEL-5; 9.51 µM (inactive) in the experiment with SK-OV-3; 8.81 µM (inactive) with SNB-75; 2.1 µM (inactive) in the experiment with SW-620. Further, in the experiment on TK-10, the GI50 is 2.86 µM (inactive).
Take `COc1ccc(-c2cc(=O)c3c(O)cc(O)cc3o2)cc1OC`: the GI50 with 786-0 is 68.9 µM (inactive); in the experiment on A498 it was 4.57 µM (inactive); in the experiment on BT-549 it was 17.9 µM (inactive); with COLO 205, > 100 µM (inactive); in the experiment with HCT-15 it was greater than 100 µM; with HOP-92, 2.3 µM (inactive). Further, the GI50 with Hs-578T was 11.5 µM (inactive); in the experiment with IGROV-1, 92 µM (inactive); with M14 it was > 100 µM (inactive); with Malme-3M it was > 100 µM (inactive); with NCI-H23 it was > 100 µM (inactive); with NCI-H460, 44.7 µM (inactive). Besides, the GI50 in the experiment with NCI-H522 is 16.7 µM (inactive); in the experiment with OVCAR-3 it was 46 µM (inactive); in the experiment on SK-MEL-5, 23 µM (inactive); in the experiment on SK-OV-3 it was 47.4 µM (inactive); in the experiment with SNB-75 it was 4.69 µM (inactive); in the experiment with SW-620, > 100 µM (inactive). Besides, the GI50 in the experiment on TK-10 was > 100 µM (inactive).
